According to patent publication US10808275B2, “Use of at least one chromogenic and/or fluorogenic phosphatase substrate for the detection and/or enumeration of enterobacteria in a sample” (BIOMERIEUX, priority 2013, dated 2020):

Assays:
[1] = tested on: non-fermenting Gram-negative; experiment: Specificity of phosphatase substrates: growth and coloration of non-enterobacteria strains on chromogenic agar media; format: cell-based, non-fermenting Gram-negative bacteria; details: for coloration >= 1: % positive non-fermenting Gram-negative strains; for growth: non-fermenting Gram-negative strains grown / 7 tested
Description: (§1) 38 bacterial strains, among which 31 enterobacteria and 7 non-enterobacteria, were tested on media containing various phosphatase substrates. Readings of the dishes were then taken at 24 h.
(§2) Then phosphatase substrates are added as follows: • Medium 1: addition of X-phosphate (X-P) at 60 mg/l • Medium 2: addition of Rose-phosphate (Rose-P) at 300 mg/L • Medium 3: addition of Magenta-phosphate (Magenta-P) at 300 mg/L • Medium 4: addition of Purple-phosphate (Purple-P) at 200 mg/L
(§3) The media are divided into Petri dishes.
(§4) Inoculation is performed from 24 h pre-cultures at 30° C. or 37° C., depending on the species, on Trypticase-soy medium.
(§5) Suspension in 0.5 McF physiological water is performed, and then the strains are inoculated with a 10 μl calibrated oese.
(§6) Readings are taken after 24 h and 48 h of incubation at 37° C.
(§7) Colonies with coloration intensities greater than or equal to 1 were considered positive, applying the reading scale below.
(§8) Reading scale of enzymatic activity/coloration • 0=no activity • 0.5=very pale coloration • 1=low-intensity distinct coloration • 2=medium-intensity obvious coloration • 3=intense coloration present, • 4=highly intense coloration present.

[2] = tested on: enterobacteria; experiment: Specificity of phosphatase substrates: growth and coloration of enterobacteria strains on chromogenic agar media; format: cell-based; details: for coloration: % of enterobacteria strains coloured; for coloration >= 1: % of enterobacteria strains positive (intensity >= 1 on 0-4 reading scale); for growth: enterobacteria strains grown / 31 tested
Description: as §1, §2, §3, §4, §5, §6, §7, §8

Row | Molecule | coloration >= 1 ([1]; 24 h at 37° C.) [%] | coloration >= 1 ([1]; 48 h at 37° C.) [%] | growth ([1]; 24 h at 37° C.) | growth ([1]; 48 h at 37° C.) | sensitivity of the substrate compared with the other substrates ([2]; 24 h) | sensitivity of the substrate compared with the other substrates ([2]; 48 h) | coloration ([2]; 48 h at 37° C.) [%] | coloration >= 1 ([2]; 24 h at 37° C.) [%] | growth ([2]; 24 h at 37° C.) | growth ([2]; 48 h at 37° C.)
1 | O=P(O)(O)Oc1c[nH]c2ccc(Br)c(Cl)c12 [X-P, 5-bromo-4-chloro-3-indoxyl-phosphate] | 0 | 0 | 7/7 | 7/7 | most sensitive | largely identical | 97 | 90 | 30/31 | 31/31
2 | O=P(O)(O)Oc1c[nH]c2cc(Cl)ccc12 [Rose-P, 6-chloro-3-indoxyl-phosphate] | 0 | 0 | 5/7 | 7/7 | least sensitive | least sensitive | 94 | 77 | 30/31 | 31/31
3 | 5-bromo-6-chloro-3-indoxyl-phosphate [Magenta-P] | 0 | 0 | 5/7 | 7/7 | most sensitive | largely identical | 100 | 90 | 30/31 | 31/31
